Consider 8 molecules from patent US20260374773A1, “MULTI-CYCLIC IRAK AND FLT3 INHIBITING COMPOUNDS AND USES THEREOF” (CHILDREN'S HOSPITAL MEDICAL CENTER, priority 2022, published 2026).

For the first assay, the target named is T1, FLT3 ITD (Homo sapiens, UniProt P36888, ITD).
T1 construct: T7 phage/E. coli or HEK-293 expression
T1 sequence (P36888 27-993): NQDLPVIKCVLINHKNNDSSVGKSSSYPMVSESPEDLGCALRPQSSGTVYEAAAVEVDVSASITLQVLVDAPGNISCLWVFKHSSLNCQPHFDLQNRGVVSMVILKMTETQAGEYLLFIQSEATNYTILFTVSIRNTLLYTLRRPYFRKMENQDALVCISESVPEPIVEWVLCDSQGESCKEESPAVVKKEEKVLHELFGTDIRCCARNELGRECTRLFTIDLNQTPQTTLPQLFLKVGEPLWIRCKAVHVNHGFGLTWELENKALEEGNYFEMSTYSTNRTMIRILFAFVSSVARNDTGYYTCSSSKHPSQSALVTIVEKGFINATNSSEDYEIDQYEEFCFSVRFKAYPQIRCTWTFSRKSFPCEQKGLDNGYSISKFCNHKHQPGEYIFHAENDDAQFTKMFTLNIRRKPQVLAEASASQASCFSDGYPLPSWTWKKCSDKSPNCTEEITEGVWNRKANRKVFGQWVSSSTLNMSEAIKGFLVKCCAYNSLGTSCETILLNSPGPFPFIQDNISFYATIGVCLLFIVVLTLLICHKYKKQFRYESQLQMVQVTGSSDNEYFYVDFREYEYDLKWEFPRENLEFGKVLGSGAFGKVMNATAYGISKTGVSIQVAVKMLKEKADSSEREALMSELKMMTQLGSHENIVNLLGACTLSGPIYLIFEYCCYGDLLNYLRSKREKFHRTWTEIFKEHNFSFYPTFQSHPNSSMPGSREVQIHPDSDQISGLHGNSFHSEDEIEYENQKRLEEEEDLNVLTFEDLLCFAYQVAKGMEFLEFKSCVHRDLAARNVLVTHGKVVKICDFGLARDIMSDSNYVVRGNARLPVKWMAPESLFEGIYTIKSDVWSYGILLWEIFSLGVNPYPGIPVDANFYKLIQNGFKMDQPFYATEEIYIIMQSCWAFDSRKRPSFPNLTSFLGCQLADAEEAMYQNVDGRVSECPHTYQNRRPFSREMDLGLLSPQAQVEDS
In words: DiscoverX KINOMEscan active site-directed competition binding, FLT3 ITD. As to conditions: Table 12; no ATP.
From the text: (§1) Kinase binding data were obtained for various exemplary compounds prepared according to Examples 1-8 using the DiscoverX KINOMEscan® active site-directed competition binding site-directed assay protocol described below. […] As a result, the data report thermodynamic interaction affinities (Kd values), rather than IC50 values that are dependent on ATP concentrations. The assay uses a DNA-tagged version of the protein kinase, and an immobilized ligand bound to a solid support. Compounds that directly or indirectly prevent kinase binding to the immobilized ligand reduce the amount of kinase captured on the solid support, which is detected using an ultra-sensitive qPCR method. Affinity constants reported from the assay have been reported to be independent of the immobilized ligand used that is coupled to the solid support (See supplemental information in Fabian, M. A. et. al., (2005) Nat. Biotechnol. 23, 329-336; Wodicka, L. M. et. al., (2010) Chem. Biol. 17, 1241-1249.)
Kinase-tagged T7 phage strains were prepared in an E. coli host derived from the BL21 strain. E. coli were grown to log-phase and infected with T7 phage and incubated with shaking at 32 °C until lysis. The lysates were centrifuged and filtered to remove cell debris. The remaining kinases were produced in HEK-293 cells and subsequently tagged with DNA for qPCR detection. Streptavidin-coated magnetic beads were treated with biotinylated small molecule ligands for 30 minutes at room temperature to generate affinity resins for kinase assays. The liganded beads were blocked with excess biotin and washed with blocking buffer (SeaBlock (Pierce), 1% BSA, 0.05% Tween 20, 1 mM DTT) to remove unbound ligand and to reduce non-specific binding. […] Test compounds were prepared as 111x stocks in 100% DMSO. Kds were determined using an 11-point 3-fold compound dilution series with three DMSO control points. All compounds for Kd measurements are distributed by acoustic transfer (non-contact dispensing) in 100% DMSO. The compounds were then diluted directly into the assays such that the final concentration of DMSO was 0.9%. All reactions were performed in polypropylene 384-well plates. Each was a final volume of 0.02 mL. The assay plates were incubated at room temperature with shaking for 1 hour and the affinity beads were washed with wash buffer (1×PBS, 0.05% Tween 20). The beads were then re-suspended in elution buffer (1×PBS, 0.05% Tween 20, 0.5 μM nonbiotinylated affinity ligand) and incubated at room temperature with shaking for 30 minutes. The kinase concentration in the eluates was measured by qPCR. Binding constants (Kds) were calculated with a standard dose-response curve using the Hill equation. The Hill Slope was set to −1. Curves were fitted using a non-linear least square fit with the Levenberg-Marquardt algorithm.
as §1, with “9-12” for “1-8”
Kinase-tagged T7 phage strains were prepared in an E. coli host derived from the BL21 strain. […]
As to `COc1cn2ncc(-c3nc(N[C@H]4CNCC[C@@H]4F)c(C#N)cc3F)c2nc1C1CC1` [Compound 7, 6-(5-cyclopropyl-6-methoxypyrazolo[1,5-a]pyrimidin-3-yl)-5-fluoro-2-(((3S,4S)-4-fluoropiperidin-3-yl)amino)nicotinonitrile], the equilibrium dissociation constant (Kd) was determined as 0.41 nM. For the molecule `COc1cn2ncc(-c3nc(N[C@H]4CNCC[C@@H]4F)c(C#N)cc3F)c2nc1C(C)(C)O` [Compound 10, 5-fluoro-2-(((3S,4S)-4-fluoropiperidin-3-yl)amino)-6-(5-(2-hydroxypropan-2-yl)-6-methoxypyrazolo[1,5-a]pyrimidin-3-yl)nicotinonitrile], the dissociation constant (Kd) stood at 0.28 nM.

Consider `COc1cn2ncc(-c3nc(N[C@H]4CNCC[C@@H]4F)c(F)cc3F)c2nc1C(C)(C)O` [Compound 13, 2-(3-(3,5-difluoro-6-(((3S,4S)-4-fluoropiperidin-3-yl)amino)pyridin-2-yl)-6-methoxypyrazolo[1,5-a]pyrimidin-5-yl)propan-2-ol], for which the equilibrium dissociation constant (Kd) was 0.21 nM.

Staying with this assay, now noted: Table 18; no ATP.
Turning to `COc1cn2ncc(-c3nc(N[C@H]4CNCC[C@@H]4F)ncc3F)c2nc1C(C)(C)O` [Compound 6a, 2-(3-(5-fluoro-2-(((3S,4S)-4-fluoropiperidin-3-yl)amino)pyrimidin-4-yl)-6-methoxypyrazolo[1,5-a]pyrimidin-5-yl)propan-2-ol], the affinity, expressed as Kd, was 0.23 nM. On the same count and under the same terms, the same measure for `COc1cn2ncc(-c3ccnc(N[C@H]4CNCC[C@@H]4F)n3)c2nc1C1CC1` [Compound 7a, 4-(5-cyclopropyl-6-methoxypyrazolo[1,5-a]pyrimidin-3-yl)-N-((3S,4S)-4-fluoropiperidin-3-yl)pyrimidin-2-amine]: 0.53 nM; for `COc1cn2ncc(-c3cncc(N[C@H]4CNCC[C@@H]4F)n3)c2nc1C1CC1` [Compound 12a, 6-(5-cyclopropyl-6-methoxypyrazolo[1,5-a]pyrimidin-3-yl)-N-((3S,4S)-4-fluoropiperidin-3-yl)pyrazin-2-amine]: 0.39 nM; for `COc1cn2ncc(-c3nc(N[C@@H]4CCCNC4)ncc3F)c2nc1C1CC1` [Compound 14a, (R)-4-(5-cyclopropyl-6-methoxypyrazolo[1,5-a]pyrimidin-3-yl)-5-fluoro-N-(piperidin-3-yl)pyrimidin-2-amine]: under 0.17 nM. On the same count and under the same terms, the same measure for `COc1cn2ncc(-c3nc(N[C@H]4CNCC[C@@H]4F)ncc3F)c2nc1C1CC1` [Compound 15a, 4-(5-cyclopropyl-6-methoxypyrazolo[1,5-a]pyrimidin-3-yl)-5-fluoro-N-((3S,4S)-4-fluoropiperidin-3-yl)pyrimidin-2-amine]: 0.25 nM.
